From US20240228488A1 (TAKEDA PHARMACEUTICAL COMPANY LIMITED, priority 2021, published 2024)

Experiments:
[1] = target: human activated kallikrein enzyme (Homo sapiens, UniProt P03952); assay: Plasma kallikrein inhibition, fluorogenic PFR-AMC substrate, 500 pM activated kallikrein format; assay type: biochemical; settings: 500 pM activated kallikrein, 300 uM PFR-AMC, 30 min preincubation, 10 min reaction; read-out: Primary Dose Response Assay: Average EC50
Summary of the method: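 Fluorogenic readout (ex 380 / em 460 nm) after 10 min room-temperature reaction with 300 uM Pro-Phe-Arg-AMC substrate, following 30 min preincubation of inhibitors with 500 pM enzyme. Buffer: Tris pH 7.5, EDTA, NaCl, PEG-400, Triton X-100. Values given as EC50 ranges.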

plasma kallikrein = target: T1, plasma kallikrein (Homo sapiens, UniProt P03952); assay: Neat human plasma assay, FXIIa contact pathway-activated, PFR-AMC substrate; assay type: biochemical; settings: citrated human plasma 78% final, 10 nM human FXIIa, 100 μM PFR-AMC; read-out: Human Plasma Assay: IC90
T1 construct: from tissue
Summary of the method: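 Compound inhibition of plasma kallikrein measured as PFR-AMC (100 μM) cleavage rate over 5 min at room temperature in 78% citrated human plasma activated with 10 nM FXIIa (Tris pH 7.5 buffer). IC50/IC90 from 4-parameter fit of rate versus inhibitor concentration.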

Chain of human activated kallikrein enzyme (P03952 391-638 limits assumed): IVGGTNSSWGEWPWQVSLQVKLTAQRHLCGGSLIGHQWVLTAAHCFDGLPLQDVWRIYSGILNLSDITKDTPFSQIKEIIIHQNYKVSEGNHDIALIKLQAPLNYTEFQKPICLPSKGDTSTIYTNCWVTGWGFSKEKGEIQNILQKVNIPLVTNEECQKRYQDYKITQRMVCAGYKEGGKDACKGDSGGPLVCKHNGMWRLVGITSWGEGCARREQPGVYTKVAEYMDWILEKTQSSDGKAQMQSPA
Chain of human activated kallikrein enzyme (P03952 20-390 partner limits assumed): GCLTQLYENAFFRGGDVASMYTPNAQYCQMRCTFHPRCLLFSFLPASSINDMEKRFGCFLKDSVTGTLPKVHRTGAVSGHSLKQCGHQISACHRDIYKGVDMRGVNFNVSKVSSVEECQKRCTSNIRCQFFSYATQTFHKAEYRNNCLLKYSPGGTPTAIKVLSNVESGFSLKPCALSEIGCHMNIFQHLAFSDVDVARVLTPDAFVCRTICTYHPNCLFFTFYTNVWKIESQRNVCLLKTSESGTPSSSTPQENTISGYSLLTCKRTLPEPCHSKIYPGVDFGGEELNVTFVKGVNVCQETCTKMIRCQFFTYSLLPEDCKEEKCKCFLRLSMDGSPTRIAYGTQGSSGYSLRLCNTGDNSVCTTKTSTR
T1 sequence (P03952 391-638 limits assumed): as the sequence (P03952 391-638 limits assumed) above
T1 sequence (P03952 20-390 partner limits assumed): as the sequence (P03952 20-390 partner limits assumed) above

| EC50 [1] [µM] | IC90 (plasma kallikrein) [µM] | Structure (SMILES) |
| --- | --- | --- |
| < 0.001 | < 0.4 | Cc1ccnc([C@H]2C[C@@H]2C(=O)Nc2cc(N(C)Cc3cn4cc(C5CC5)cc(N5CC(=O)N(C)C5=O)c4n3)ncn2)n1 (racemic) [Example 387, rac-(1S*,2S*)-N-(6-(((6-cyclopropyl-8-(3-methyl-2,4-dioxoimidazolidin-1-yl)imidazo[1,2-a]pyridin-2-yl)methyl)(methyl)amino)pyrimidin-4-yl)-2-(4-methylpyrimidin-2-yl)cyclopropane-1-carboxamide] |
| < 0.001 | < 0.4 | Cc1cc(OCc2cn3cc(C4CC4)cc(N4CC(=O)N(C)C4=O)c3n2)cc(NC(=O)[C@H]2C[C@@H]2c2nccc(C)n2)n1 [Example 34, (1S,2S)—N-(4-((6-cyclopropyl-8-(3-methyl-2,4-dioxoimidazolidin-1-yl)imidazo[1,2-a]pyridin-2-yl)methoxy)-6-methylpyridin-2-yl)-2-(4-methylpyrimidin-2-yl)cyclopropane-1-carboxamide] |
| < 0.001 | < 0.4 | CN(C)CCc1cc(C2CC2)cn2cc(CNc3ccnc(NC(=O)[C@H]4C[C@@H]4c4cccc(Cl)c4)c3)nc12 [Example 598, (1S,2S)-2-(3-chlorophenyl)-N-(4-(((6-cyclopropyl-8-(2-(dimethylamino)ethyl)imidazo[1,2-a]pyridin-2-yl)methyl)amino)pyridin-2-yl)cyclopropane-1-carboxamide] |
| < 0.001 | 1.5 to 10 | CN1C(=O)CCN(c2cc(C3CC3)cn3cc(CNc4cc(NC(=O)[C@H]5C[C@@H]5c5cccc(Cl)c5)ncn4)nc23)C1=O [Example I-194, (1S,2S)-2-(3-chlorophenyl)-N-(6-(((6-cyclopropyl-8-(3-methyl-2,4-dioxotetrahydropyrimidin-1(2H)-yl)imidazo[1,2-a]pyridin-2-yl)methyl)amino)pyrimidin-4-yl)cyclopropane-1-carboxamide] |
| < 0.001 | 0.4 to 1.5 | CN1C(=O)CN(c2cc(C3CC3)cn3cc(CNc4cc(NC(=O)[C@H]5C[C@@H]5c5cc(Cl)ccn5)ncn4)nc23)C1=O (racemic) [Example I-262, rac-(1S*,2S*)-2-(4-chloropyridin-2-yl)-N-(6-(((6-cyclopropyl-8-(3-methyl-2,4-dioxoimidazolidin-1-yl)imidazo[1,2-a]pyridin-2-yl)methyl)amino)pyrimidin-4-yl)cyclopropane-1-carboxamide] |
| < 0.001 | 0.4 to 1.5 | CN1CCC(Nc2cc(C3CC3)cn3cc(CNc4cc(NC(=O)[C@H]5C[C@@H]5c5cccc(Cl)c5)ncn4)nc23)CC1 [Example I-5, (1S,2S)-2-(3-chlorophenyl)-N-(6-(((6-cyclopropyl-8-((1-methylpiperidin-4-yl)amino)imidazo[1,2-a]pyridin-2-yl)methyl)amino)pyrimidin-4-yl)cyclopropane-1-carboxamide] |
| < 0.001 | 0.4 to 1.5 | COc1nc(NC(=O)[C@H]2C[C@@H]2c2nccc(C)n2)cc(OCc2cn3cc(C4CC4)cc(N4CC(=O)N(C)C4=O)c3n2)n1 [Example 556, (1S,2S)-N-(6-((6-cyclopropyl-8-(3-methyl-2,4-dioxoimidazolidin-1-yl)imidazo[1,2-a]pyridin-2-yl)methoxy)-2-methoxypyrimidin-4-yl)-2-(4-methylpyrimidin-2-yl)cyclopropane-1-carboxamide] |
| < 0.001 | 1.5 to 10 | O=C(Nc1cc(NCc2cn3cc(C4CC4)cc(N4CCSCC4=O)c3n2)ncn1)[C@H]1C[C@@H]1c1cccc(Cl)c1 [Example I-155, (1S,2S)-2-(3-chlorophenyl)-N-(6-(((6-cyclopropyl-8-(3-oxothiomorpholino)imidazo[1,2-a]pyridin-2-yl)methyl)amino)pyrimidin-4-yl)cyclopropane-1-carboxamide] |
| < 0.001 | 1.5 to 10 | CN(C)C1CN(c2cc(C3CC3)cn3cc(CNc4ccnc(NC(=O)[C@H]5C[C@@H]5c5cccc(Cl)c5)c4)nc23)C1 [Example I-4, (1S,2S)-2-(3-chlorophenyl)-N-(4-(((6-cyclopropyl-8-(3-(dimethylamino)azetidin-1-yl)imidazo[1,2-a]pyridin-2-yl)methyl)amino)pyridin-2-yl)cyclopropane-1-carboxamide] |
| < 0.001 | 1.5 to 10 | O=C(Nc1nc(O)nc(NCc2cn3cc(C4CC4)ccc3n2)n1)[C@H]1C[C@@H]1c1cccc(Cl)c1 [Example 295, (1S,2S)-2-(3-chlorophenyl)-N-(4-(((6-cyclopropylimidazo[1,2-a]pyridin-2-yl)methyl)amino)-6-hydroxy-1,3,5-triazin-2-yl)cyclopropane-1-carboxamide] |

Further lines, the compound ahead of its results:

| Structure (SMILES) | EC50 [1] [µM] | IC90 (plasma kallikrein) [µM] |
| --- | --- | --- |
| O=C(Nc1cc(NCc2cn3cc(C4CC4)ccc3n2)ncn1)[C@H]1C[C@@H]1c1cccc(Cl)c1 (single isomer, unassigned) [Example 57] | 0.001 to 0.01 | > 48 |
| CN(C)C1CCN(c2cc(C3CC3)cn3cc(CNc4cc(NC(=O)[C@H]5C[C@@H]5c5cccc(Cl)c5)ncn4)nc23)C1 (mixture of isomers) [Example I-13, (1S,2S)-2-(3-chlorophenyl)-N-(6-(((6-cyclopropyl-8-(3-(dimethylamino)pyrrolidin-1-yl)imidazo[1,2-a]pyridin-2-yl)methyl)amino)pyrimidin-4-yl)cyclopropane-1-carboxamide] | 0.001 to 0.01 | 1.5 to 10 |
| Cc1cc(NCc2cn3cc(C4CC4)ccc3n2)cc(NC(=O)[C@H]2C[C@@H]2c2cc(Cl)ccc2C#N)n1 (racemic) [Example 342, rac-(1S*,2S*)-2-(5-chloro-2-cyanophenyl)-N-(4-(((6-cyclopropylimidazo[1,2-a]pyridin-2-yl)methyl)amino)-6-methylpyridin-2-yl)cyclopropane-1-carboxamide] | < 0.001 | 1.5 to 10 |
| Cc1ccnc([C@H]2C[C@@H]2C(=O)Nc2cc(OCc3cn4cc(C5CC5)cc(N5CC(=O)N(C)C5=O)c4n3)cnn2)n1 [Example 558, (1S,2S)-N-(5-((6-cyclopropyl-8-(3-methyl-2,4-dioxoimidazolidin-1-yl)imidazo[1,2-a]pyridin-2-yl)methoxy)pyridazin-3-yl)-2-(4-methylpyrimidin-2-yl)cyclopropane-1-carboxamide] | < 0.001 | < 0.4 |
| Cc1ccnc([C@H]2C[C@@H]2C(=O)Nc2cc(N(C)C(C)c3cn4cc(C5CC5)cc(N5CC(=O)N(C)C5=O)c4n3)ncn2)n1 (stereo partly drawn) [Example 369, (1S,2S)-N-(6-((1-(6-cyclopropyl-8-(3-methyl-2,4-dioxoimidazolidin-1-yl)imidazo[1,2-a]pyridin-2-yl)ethyl)(methyl)amino)pyrimidin-4-yl)-2-(4-methylpyrimidin-2-yl)cyclopropane-1-carboxamide] | 0.001 to 0.01 | 1.5 to 10 |
| CN1C(=O)CN(c2cc(C3CC3)cn3cc(CNc4cc(NC(=O)[C@@H]5[C@@H](c6cccc(Cl)c6)C5(F)F)ncn4)nc23)C1=O (racemic) [Example 543, rac-(1S*,3S*)-3-(3-chlorophenyl)-N-(6-(((6-cyclopropyl-8-(3-methyl-2,4-dioxoimidazolidin-1-yl)imidazo[1,2-a]pyridin-2-yl)methyl)amino)pyrimidin-4-yl)-2,2-difluorocyclopropane-1-carboxamide] | 0.001 to 0.01 | 1.5 to 10 |
